From patent US7923465B2, “Cannabinoid receptor ligands, pharmaceutical compositions containing them, and process for their preparation” (priority 2005, dated 2011) come the findings set out here.

Each structure is given as a SMILES string.

One experiment concerns the target CB1 (Rattus norvegicus, UniProt P20272). Kind of experiment: Rat CB1 receptor binding using brain membrane, [3H]SR141716A displacement (Protocol I). Details: CB1 receptor present in a rat brain membrane preparation; from tissue; host or cells: rat brain membrane. The following applies: rat brain membrane, [3H]SR141716A displacement.
The target in a further experiment is hCB2 (Homo sapiens, UniProt P34972). Briefly: In vitro binding assay using hCB2-CHO membranes, [3H]-CP-55,940 displacement (Protocol IV). Also on record: expressed in transfected cells; host or cells: CHO (hCB2-CHO, generated in-house). Conditions: hCB2-CHO membranes, [3H]-CP-55,940 displacement. The method in brief: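 Compounds were tested at a single 300 nM final concentration for displacing 0.75 nM [3H]-CP-55,940 from hCB2-CHO membranes (1 h, 30 °C, 50 mM Tris pH 7.4, 5 mM MgCl2, 1 mM EDTA, 0.1% BSA). Filter-bound radioactivity was counted, with 0.5 μM unlabelled CP-55,940 for nonspecific binding; results are % displacement.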
Chain of hCB2 (P34972 whole entry): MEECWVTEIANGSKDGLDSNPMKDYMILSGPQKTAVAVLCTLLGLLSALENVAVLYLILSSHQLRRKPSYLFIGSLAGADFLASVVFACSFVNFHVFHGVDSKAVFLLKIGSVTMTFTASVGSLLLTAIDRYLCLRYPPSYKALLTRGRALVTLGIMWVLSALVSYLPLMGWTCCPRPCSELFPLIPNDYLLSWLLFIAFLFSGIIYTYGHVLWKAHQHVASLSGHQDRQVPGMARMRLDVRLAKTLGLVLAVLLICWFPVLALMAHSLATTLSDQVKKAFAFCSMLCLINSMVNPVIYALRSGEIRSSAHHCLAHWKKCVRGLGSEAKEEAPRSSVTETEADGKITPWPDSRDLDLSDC

The target of the next experiment is hCB1 (Homo sapiens, UniProt P21554). Briefly: In vitro binding assay using hCB1-CHO membranes, [3H]-CP-55,940 displacement (Protocol II). Details: expressed in transfected cells; host or cells: CHO (hCB1-CHO, generated in-house). As for the experimental part: II. Protocol for In Vitro Assay Using hCB1-CHO Membranes
Chain of hCB1 (P21554 whole entry): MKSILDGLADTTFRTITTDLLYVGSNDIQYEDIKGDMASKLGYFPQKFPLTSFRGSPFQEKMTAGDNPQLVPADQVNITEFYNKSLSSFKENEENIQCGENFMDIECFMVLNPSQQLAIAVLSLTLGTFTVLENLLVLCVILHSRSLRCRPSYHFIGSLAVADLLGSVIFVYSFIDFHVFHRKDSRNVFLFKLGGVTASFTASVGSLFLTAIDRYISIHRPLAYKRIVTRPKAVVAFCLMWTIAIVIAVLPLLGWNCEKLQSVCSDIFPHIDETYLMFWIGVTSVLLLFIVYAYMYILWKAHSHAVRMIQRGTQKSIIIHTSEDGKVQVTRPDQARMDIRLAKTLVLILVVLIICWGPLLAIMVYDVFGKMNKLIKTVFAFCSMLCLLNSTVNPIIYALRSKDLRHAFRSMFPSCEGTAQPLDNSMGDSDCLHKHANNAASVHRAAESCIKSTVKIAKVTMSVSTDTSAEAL
The reaction was set up in a total volume of 200 μl in PEI (Poly(ethyleneimine)) (0.2%) precoated Millipore GFB (Glass Fibre-B) filter plates. 1 mM stocks of test compounds were prepared in DMSO and tested at a final concentration of 300 nM. The non-specific binding was determined by 0.5 μM CP-55, 940. […] The assay mixture (with or without the test compound) was incubated at 37° C. for 1 hour. The reaction was stopped by rapid filtration under vacuum and the radioactivity on the filters was measured by liquid scintillation counting.

Chain of CB1 (P20272 whole entry): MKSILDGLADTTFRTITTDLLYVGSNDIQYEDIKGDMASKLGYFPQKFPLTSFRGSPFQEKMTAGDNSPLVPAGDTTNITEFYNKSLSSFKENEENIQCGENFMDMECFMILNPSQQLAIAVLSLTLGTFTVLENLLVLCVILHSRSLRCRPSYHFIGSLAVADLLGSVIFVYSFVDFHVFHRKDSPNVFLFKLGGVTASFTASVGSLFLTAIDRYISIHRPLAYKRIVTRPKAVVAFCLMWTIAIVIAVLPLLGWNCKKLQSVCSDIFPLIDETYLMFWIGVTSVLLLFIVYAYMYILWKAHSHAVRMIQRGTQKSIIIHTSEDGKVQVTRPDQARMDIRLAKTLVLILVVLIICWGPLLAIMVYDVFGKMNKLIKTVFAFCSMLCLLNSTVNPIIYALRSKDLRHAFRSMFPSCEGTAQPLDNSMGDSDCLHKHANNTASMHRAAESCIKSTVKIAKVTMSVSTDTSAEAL

Take `O=C(NN1CCCCC1)c1n[nH]c2c1C1CC3CC(CC2C3)C1` [Example 187, N(7)-Piperidino-5,6-diazatetracyclo[7.3.1.1^3,11.0^4,8]tetradeca-4(8)-6-diene-7-carboxamide]: the “% Displacement Protocol I” value on CB1 is on record as 6.0%. Moreover, at hCB2, the “% Displacement Protocol IV” value is recorded as 0.7%. For the same molecule, the “% Displacement Protocol II” value on hCB1 was 15.66%.
Regarding `O=C(NCCc1ccccc1)c1nn(-c2ccc(Cl)cc2)c2c1C1CC3CC(C1)CC2C3` [Example 136, N(7)-(2-Phenylethyl)-5-(4-chlorophenyl)-5,6-diazatetracyclo[7.3.1.1^3,11.0^4,8]tetradeca-4(8)-6-diene-7-carboxamide], the “% Displacement Protocol I” value on CB1 was found to be 31.3%. Besides, the “% Displacement Protocol IV” value on hCB2 is on record as 15.44%. Moreover, at hCB1, the “% Displacement Protocol II” value came out at 1.01%.
As to `O=C(c1nn(-c2ccc(Cl)cc2)c2c1C1CCC2C1)N1CCCCC1` (stereo not drawn) [Example 210, 1-(4-Chlorophenyl)-4,5,6,7-tetrahydro-1H-4,7-methano-indazol-3-yl piperidino methanone], at CB1, the “% Displacement Protocol I” value came out at 12.6%. In addition, at hCB2, the “% Displacement Protocol IV” value was found to be 17.69%. In addition, the “% Displacement Protocol II” value at hCB1 was found to be 11.58%.
In the case of `O=C(c1n[nH]c2c1C1CC3CC(CC2C3)C1)N1CCCCC1` [Example 188, 6,7-Diazatetracyclo[7.3.1.1^3,11.0^4,8]tetradeca-4(8)-5-dien-5-yl-piperidinomethanone], the “% Displacement Protocol I” value on CB1 was 19.5%. Besides, at hCB2, the “% Displacement Protocol IV” value came to 36.01%. The “% Displacement Protocol II” value on hCB1 is 12.5%.
As to `O=C(c1nn(-c2ccccc2)c2c1C1CC3CC(C1)CC2C3)N1CCCCC1` [Example 171, N(7)-phenyl-6,7-diazatetracyclo[7.3.1.1^3,11.0^4,8]tetradeca-4(8)-5-dien-5-yl-piperidino methanone], at CB1, the “% Displacement Protocol I” value is given as 0%. The “% Displacement Protocol IV” value on hCB2 was found to be 0.56%. Moreover, at hCB1, the “% Displacement Protocol II” value came out at 19.37%.
As to `O=C(NCc1ccc(F)cc1)c1nn(-c2ccc(Cl)cc2)c2c1C1CC3CC(C1)CC2C3` [Example 113, N(7)-(4-Fluorobenzyl)-5-(4-chlorophenyl)-5,6-diazatetracyclo[7.3.1.1^3,11.0^4,8]tetradeca-4(8)-6-diene-7-carboxamide], on CB1, the “% Displacement Protocol I” value is 55.9%. Also, the “% Displacement Protocol IV” value on hCB2 came out at 17.02%. In addition, the “% Displacement Protocol II” value at hCB1 turned out to be 27.70%.
Regarding `O=C(NN1CCCCC1)c1nn(-c2ccccc2Br)c2c1C1CC3CC(C1)CC2C3` [Example 101, N(7)-Piperidino-5-(2-bromophenyl)-5,6-diazatetracyclo[7.3.1.1^3,110^4,8]tetradeca-4(8),6-diene-7-carboxamide], on CB1, the “% Displacement Protocol I” value was determined as 28.8%. Besides, on hCB2, the “% Displacement Protocol IV” value was 0%. Besides, on hCB1, the “% Displacement Protocol II” value turned out to be 5.75%.
Consider `Cn1nc2c(c1C(=O)NN1CCCCC1)C1CC3CC(CC2C3)C1` [Example 189a, N(7)-Piperidino-6-methyl-5,6-diazatetracyclo[7.3.1.1^3,11.0^4,8]tetradeca-4(8)-6-diene-7-carboxamide], for which the “% Displacement Protocol I” value on CB1 was determined as 7%. The “% Displacement Protocol IV” value on hCB2 turned out to be 0.81%. Moreover, on hCB1, the “% Displacement Protocol II” value stood at 21.2%.
Consider `Cn1nc(C(=O)NN2CCCCC2)c2c1C1CC3CC(CC2C3)C1` [Example 189b, N(7)-Piperidino-5-methyl-5,6-diazatetracyclo[7.3.1.1^3,11.0^4,8]tetradeca-4(8)-6-diene-7-carboxamide], for which the “% Displacement Protocol I” value at CB1 stood at 3%. Further, at hCB2, the “% Displacement Protocol IV” value is reported as 2.56%. The “% Displacement Protocol II” value at hCB1 was determined as 24.03%.
